Target: T1, human renin (Homo sapiens, UniProt P00797)
T1 construct: A human plasma pool is used as the source of both the substrate (angiotensinogen) and the enzyme (renin); from tissue; host or cells: human plasma pool
T1 sequence (P00797 67-406): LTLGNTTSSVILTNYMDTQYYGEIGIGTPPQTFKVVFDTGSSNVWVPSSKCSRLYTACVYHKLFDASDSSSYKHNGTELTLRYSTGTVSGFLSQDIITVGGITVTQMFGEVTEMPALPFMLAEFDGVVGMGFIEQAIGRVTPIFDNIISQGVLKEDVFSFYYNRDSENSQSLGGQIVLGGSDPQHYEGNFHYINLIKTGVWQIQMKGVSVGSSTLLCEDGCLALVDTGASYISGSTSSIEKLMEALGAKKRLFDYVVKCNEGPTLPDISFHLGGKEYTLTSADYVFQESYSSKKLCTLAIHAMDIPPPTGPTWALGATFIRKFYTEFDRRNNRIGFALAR
Test: Plasma renin assay (inhibition of human renin, angiotensin I by RIA)
Type: biochemical
Conditions: human plasma pool, pH 6.0, 2 h incubation at 37°
How it was run: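 Pooled human plasma supplies both renin and angiotensinogen; inhibitor in MES/1% HSA buffer (1% DMSO final) incubated 2 h at 37° at pH 6.0. Angiotensin I generated quantified by radioimmunoassay, inhibition relative to no-inhibitor control, IC50 by nonlinear regression.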

IC50 [nM]	Compound
94	CC(C)C[C@H](O)[C@H](O)[C@H](CC1CCCCC1)NC(=O)[C@@H](CC(=O)N(CC(=O)N1CCOCC1)Cc1ccccc1)CC1CC1 [Compound 1, N^4-benzyl-N^4-(2-morpholino-2-oxoethyl)-N^1-[1(S)-(cyclohexylmethyl)-2(R),3(S)-dihydroxy-5-methylhexyl]-2(R)-(cyclopropylmethyl)butanediamide]
8	CCCC(CCC)N(CC(=O)N(C)CCc1ccccn1)C(=O)C[C@@H](Cc1csc(N)n1)C(=O)N[C@@H](CC1CCCCC1)[C@@H](O)[C@@H](O)CC(C)C [Compound 91]
3	CC(C)C[C@H](O)[C@H](O)[C@H](CC1CCCCC1)NC(=O)[C@@H](CC(=O)N(CC(=O)N(C)CCc1ccccn1)Cc1ccoc1)Cc1csc(N)n1 [Compound 89, N^4-(3-furanylmethyl)-N^4 -{2-{methyl-[2-(2-pyridinyl)ethyl]amino}-2-oxoethyl}-N^1-[1(S)-(cyclohexylmethyl)-2(R),3(S)-dihydroxy-5-methylhexyl]-2(R)-[(2-amino-4-thiazolyl)-methyl]butanediamide]
36	CC(C)CC[C@H](O)[C@H](CC1CCCCC1)NC(=O)[C@@H](CC(=O)N(CC(=O)N(C)CCc1ccccn1)CC1CCCCC1)Cc1csc(N)n1 [Compound 77, N^4-(cyclohexylmethyl)-N^4 -{2-{methyl[2-(2-pyridinyl)ethyl]-amino}-2-oxoethyl}-N^1-[1(S)-(cyclohexylmethyl)-2(S)-hydroxy-5-methylhexyl]-2(R)-[(2-amino-4-thiazolyl)methyl]butanediamide]
1	CC(C)C[C@H](O)[C@H](O)[C@H](CC1CCCCC1)NC(=O)[C@@H](CC(=O)N(CC(=O)N(C)CCc1ccccn1)[C@@H](C)c1ccccc1)Cc1csc(N)n1 [Compound 75, N^4 -{2-{methyl[2-(2-pyridinyl)ethyl]-amino}-2-oxoethyl}-N^4-[1(S)-phenylethyl]-N^1-[1(S)-(cyclohexylmethyl)-2(R),3(S)-dihydroxy-5-methylhexyl]-2(R)-[(2-amino-4-thiazolyl)methyl]butanediamide]
2	CC(C)C[C@H](O)[C@H](O)[C@H](CC1CCCCC1)NC(=O)[C@@H](CC(=O)N(CC(=O)N1CCOCC1)CC1CCCC1)Cc1csc(N)n1 [Compound 80, N^4-(cyclopentylmethyl)-N^4-(2-morpholino-2-oxoethyl)-N^1-[1(S)-(cyclohexylmethyl)-2(R),3(S)-dihydroxy-5-methylhexyl]-2(R)-[(2-amino-4-thiazolyl)methyl]butanediamide]
2	CC(C)C[C@H](O)[C@H](O)[C@H](CC1CCCCC1)NC(=O)[C@@H](CC(=O)N(CCC1CCCC1)CC(=O)N(C)CCc1ccccn1)Cc1csc(N)n1 [Compound 87, N^4-(2-cyclopentylethyl)-N^4 -{2-{methyl[2-(2-pyridinyl)ethyl]amino}-2-oxoethyl}-N^1-[1(S)-(cyclohexylmethyl)-2(R),3(S)-dihydroxy-5-methylhexyl]-2(R)-[(2-amino-4-thiazolyl)-methyl]butanediamide]
0.5	CC(C)C[C@H](O)[C@H](O)[C@H](CC1CCCCC1)NC(=O)[C@@H](CC(=O)N(CC(=O)N(C)CCN(C)C(=O)N1CCOCC1)[C@@H](C)c1ccccc1)Cc1csc(N)n1 [Compound 15, N^4 -{2-{methyl{2-[methyl(morpholinocarbonyl)amino]ethyl}amino}-2-oxoethyl}-N^4-[1(S)-phenylethyl]-N^1-[1(S)-(cyclohexylmethyl)-2(R),3(S)-dihydroxy-5-methylhexyl]-2(R)-[(2-amino-4-thiazolyl)methyl]butanediamide]
6.8	C[C@@H](c1ccccc1)N(CC(=O)N(C)C)C(=O)C[C@@H](Cc1csc(N)n1)C(=O)N[C@@H](CC1CCCCC1)[C@@H](O)[C@@H](O)C1CC1 [Compound 43, N^4-[2-(dimethylamino)-2-oxoethyl]-N^4-[1(S)-phenylethyl]-N^1-[1(S)-(cyclohexylmethyl)-2(R),3(S)-dihydroxy-(3-cyclopropylpropyl)]-2(R)-[(2-amino-4-thiazolyl)methyl]-butanediamide]
6.7	CC(C)C[C@H](O)[C@H](O)[C@H](CC1CCCCC1)NC(=O)[C@@H](CC(=O)N(CC(=O)N(C)C)C[C@@H](C)c1ccccc1)Cc1nccs1 [Compound 40, N^4-[2-(dimethylamino)-2-oxoethyl]-N^4-[2 (S)-phenylpropyl]-N^1-[1(S)-(cyclohexylmethyl)-2(R),3(S)-dihydroxy-5-methylhexyl]-2(S)-(2-thiazolylmethyl)butanediamide]
2.2	CC(C)C[C@H](O)[C@H](O)[C@H](CC1CCCCC1)NC(=O)[C@@H](CC(=O)N(CC(=O)N(C)CCc1ccccn1)CC1CCCCC1)Cc1csc(N)n1 [Compound 50, N^4-(cyclohexylmethyl)-N^4 -{2-{methyl-[2-(2-pyridinyl)ethyl]-amino}-2-oxoethyl}-N^1-[1(S)-(cyclohexylmethyl)-2(R),3(S)-dihydroxy-5-methylhexyl]-2(R)-[(2-amino-4-thiazolyl)methyl]butanediamide]
61	CCN(CC)CCN(C)C(=O)CN(C(=O)C[C@@H](CC1CC1)C(=O)N[C@@H](CC1CCCCC1)[C@@H](O)[C@@H](O)CC(C)C)[C@@H](C)c1ccccc1 [Compound 24, N^4 -{2-{[2-(diethylamino)ethyl]methylamino}-2-oxoethyl}-N^4-[1(S)-phenylethyl]-N^1-[1(S)-(cyclohexylmethyl)-2(R),3(S)-dihydroxy-5-methylhexyl]-2(R)-(cyclopropylmethyl)-butanediamide]
34	CCC[C@H](CC(=O)N(CC(=O)N(C)C)[C@@H](C)c1ccccc1)C(=O)N[C@@H](CC1CCCCC1)[C@@H](O)[C@@H](O)CC(C)C [Compound 25, N^4-[2-(dimethylamino)-2-oxoethyl]-N^4-[1(S)-phenylethyl]-N^1-[1(S)-(cyclohexylmethyl)-2(R),3(S)-dihydroxy-5-methylhexyl]-2(R)-propylbutanediamide]
32	CC(C)C[C@H](O)[C@H](O)[C@H](CC1CCCCC1)NC(=O)[C@@H](CC(=O)N(CC(=O)N(C)C)CC1CCCC1)Cc1cccnc1 [Compound 69, N^4-(cyclopentylmethyl)-N^4-[2-(dimethylamino)-2-oxoethyl]-N^1-[1(S)-(cyclohexylmethyl)-2(R),3(S)-dihydroxy-5-methylhexyl]-2(R)-(3-pyridinylmethyl)butanediamide]
